Measured values published in US4198506A, “2-Carboxyalkyl-2,3-dihydro-6-mercapto-s-triazolo[4,3-b]-pyridazin-3-ones” (Bristol-Myers Company, priority 1979, dated 1980).
Converted amounts (≈) assume the structure as drawn. “And” between values parts separate entries of the source, which are not always exact repeats. Identical values can stand only once. Like-named read-outs stand apart in the source and are kept apart here.

How the values were obtained:
S. marcescens = test: In vitro activity (geometric mean MIC, serial dilution); format: cell-based; details: Serratia marcescens, read-out: Geometric Mean MIC
Klebsiella sp. = test: as above; format: cell-based; details: 12 strains, Mueller-Hinton agar, inoculum 10^4 dilution, MIC cutoff 200 mcg./ml., read-out: Geometric Mean MIC
D. pneumoniae = test: as above; format: cell-based; details: Streptococcus pneumoniae; 9 strains; Mueller-Hinton agar, inoculum 10^4 dilution; MIC cutoff 200 mcg./ml.
[1] = tested on: E. coli (Penicillinase +); test: as above; format: cell-based; details: Escherichia coli, read-out: Geometric Mean MIC
Proteus (indole +) = test: as above; format: cell-based; details: read-out: Geometric Mean MIC
[2] = tested on: Proteus (indole +, cephalosporinase +); test: as above; format: cell-based; details: read-out: Geometric Mean MIC
S. pyogenes = test: as above; format: cell-based; details: Streptococcus pyogenes; 10 strains; Mueller-Hinton agar, inoculum 10^4 dilution; MIC cutoff 200 mcg./ml.
S. aureus (sensitive) = test: as above; format: cell-based; details: Staphylococcus aureus, read-out: Geometric Mean MIC
Providencia sp. = test: as above; format: cell-based; details: 5 strains, Mueller-Hinton agar, inoculum 10^4 dilution, MIC cutoff 200 mcg./ml., read-out: Geometric Mean MIC
Proteus (indole-) = test: as above; format: cell-based; details: read-out: Geometric Mean MIC
Enterobacter (sensitive) = test: as above; format: cell-based; details: 3 strains, Mueller-Hinton agar, inoculum 10^4 dilution, MIC cutoff 200 mcg./ml., read-out: Geometric Mean MIC
E. coli (sensitive) = test: as above; format: cell-based; details: Escherichia coli, read-out: Geometric Mean MIC
[3] = tested on: Enterobacter (Cephalosporinase +); test: as above; format: cell-based; details: 7 strains, Mueller-Hinton agar, inoculum 10^4 dilution, MIC cutoff 200 mcg./ml.
[4] = tested on: S. aureus penicillinase+); test: as above; format: cell-based; details: Staphylococcus aureus; 13 strains; Mueller-Hinton agar, inoculum 10^4 dilution; MIC cutoff 200 mcg./ml.; read-out: Geometric Mean MIC
[5] = tested on: S. aureus (Methicillin-R); test: as above; format: cell-based; details: Staphylococcus aureus; 15 strains; Mueller-Hinton agar, inoculum 10^4 dilution; MIC cutoff 200 mcg./ml.
E. coli Juhl = test: In vivo activity (Mice, sc); details: several determinations listed; for ED50: Escherichia coli, read-out: PD50
Description: (§1) |In vivo Activity of BB-[…] and Related Compounds (Mice, sc) | (PD50 (mgm./kg.)

S. aureus Smith = test: In vivo activity (Mice, sc); details: Staphylococcus aureus, several determinations listed, read-out: PD50
Description: as §1

St. faecalis = test: In vitro antibacterial activity (Steers' agar dilution MIC); format: cell-based; details: Enterococcus faecalis, table 4 (BB-S 525); St. faecalis; read-out: MIC
Shig. dysenteriae = test: as above; format: cell-based; details: Shigella dysenteriae, table 4 (BB-S 525); Shig. dysenteriae
Kl. pneumoniae = test: as above; format: cell-based; details: Klebsiella pneumoniae, table 4 (BB-S 525)
Description: (§2) In vitro Antibacterial Activity of BB-S493 Compared with
(§3) BB-S479 and Cefamandole (Determined by Steers' Agar Dilu-
(§4) tion Method on Mueller-Hinton Agar Plate)
(§5) In vitro antibacterial activity of BB-S 525 compared with
(§6) BB-S 479 and cefamandole (determined by Steers' agar dilution
(§7) method on Mueller-Hinton agar plate)

S. aureus = test: as above; format: cell-based; details: Staphylococcus aureus, table 4 (BB-S 525)
Description: as §2, §3, §4, §5, §6, §7

E. coli = test: as above; format: cell-based; details: Escherichia coli
Description: as §2, §3, §4, §5, §6, §7

Shig. sonnei = test: as above; format: cell-based; details: Shigella sonnei, table 4 (BB-S 525); Shig. sonnei
Description: as §2, §3, §4, §5, §6, §7

Sal. typhosa = test: as above; format: cell-based; details: table 4 (BB-S 525); Sal. typhosa
Description: as §2, §3, §4, §5, §6, §7

Shig. flexneri = test: as above; format: cell-based; details: Shigella flexneri; table 4 (BB-S 525); Shig. flexneri; read-out: MIC
Description: as §2, §3, §4, §5, §6, §7

Serr. marcescens = test: as above; format: cell-based; details: Serratia marcescens, table 4 (BB-S 525); Serr. marcescens; read-out: MIC
Sal. enteritidis = test: as above; format: cell-based; details: Salmonella enterica, table 4 (BB-S 525), Sal. enteritidis
Pr. mirabilis = test: as above; format: cell-based; details: Proteus mirabilis, table 4 (BB-S 525), Pr. mirabilis, read-out: MIC
B. anthracis = test: microbe, parasite or virus in culture; format: cell-based; details: Bacillus anthracis, table 4 (BB-S 525); B. anthracis
Ps. aeruginosa = test: In vitro antibacterial activity (Steers' agar dilution MIC); format: cell-based; details: table 4 (BB-S 525), Ps. aeruginosa
Pr. rettgeri = test: as above; format: cell-based; details: Providencia rettgeri, table 4 (BB-S 525); Pr. rettgeri
Pr. vulgaris = test: as above; format: cell-based; details: Proteus vulgaris, table 4 (BB-S 525), Pr. vulgaris, read-out: MIC
Enterob. cloacae = test: as above; format: cell-based; details: table 4 (BB-S 525); Enterob. cloacae; read-out: MIC
Pr. morganii = test: as above; format: cell-based; details: Morganella morganii, table 4 (BB-S 525), Pr. morganii, read-out: MIC

**Q.** Which results are given for `CNCc1cc(O)ccc1CC(=O)N[C@@H]1C(=O)N2C(C(=O)O)=C(CSc3ccc4nn(CC(=O)O)c(=O)n4n3)CS[C@H]12` [BB-S478, 7-(2-N-Methylaminomethyl-4-hydroxyphenylacetamido)-3-(2-N-carboxymethyl-2,3-dihydro-s-triazolo[4,5-b]pyridazin-3-on-6-ylthiomethyl)-3-cephem-4-carboxylic Acid]?
**A.** MIC (S. marcescens): 40 µg/mL (≈ 65 µM); MIC (Klebsiella sp.): 0.6 µg/mL (≈ 0.975 µM); MIC (D. pneumoniae): 0.03 µg/mL (≈ 0.0487 µM); MIC [1]: 10 µg/mL (≈ 16.2 µM); MIC (Proteus (indole +)): 0.3 µg/mL (≈ 0.487 µM); MIC [2]: 7.3 µg/mL (≈ 11.9 µM); MIC (S. pyogenes): 0.04 µg/mL (≈ 0.065 µM); MIC (S. aureus (sensitive)): 0.4 µg/mL (≈ 0.65 µM); MIC (Providencia sp.): 4.8 µg/mL (≈ 7.8 µM); MIC (Proteus (indole-)): 0.4 µg/mL (≈ 0.65 µM); MIC (Enterobacter (sensitive)): 0.8 µg/mL (≈ 1.3 µM); MIC (E. coli (sensitive); 13 strains, Mueller-Hinton agar, inoculum 10^4 dilution, MIC cutoff 200 mcg./ml.): 0.2 µg/mL (≈ 0.325 µM); MIC [3]: 2.6 µg/mL (≈ 4.22 µM); MIC [4]: 1 µg/mL (≈ 1.62 µM); MIC [5]: 50 µg/mL (≈ 81.2 µM); ED50 (E. coli Juhl): 0.08 mg/kg; ED50 (S. aureus Smith): 0.08 mg/kg

**Q.** Which MIC (St. faecalis) does the source give for `CNCc1ccccc1CC(=O)N[C@@H]1C(=O)N2C(C(=O)O)=C(CSc3ccc4nn(CCC(=O)O)c(=O)n4n3)CS[C@H]12` [BB-S 525, 7-[o-(N-Methylaminomethyl)phenylacetamido]-3-[2-(2-carboxyethyl)-2,3-dihydro-s-triazolo[4,3-b]pyridazin-3-on-6-ylthiomethyl]-3-cephem-4-carboxylic acid] here?
**A.** > 100 µg/mL

**Q.** What about the MIC (Shig. dysenteriae) of the same molecule?
**A.** 0.1 µg/mL (≈ 0.163 µM)

**Q.** What about the MIC (Kl. pneumoniae; Kl. pneumoniae, 1st line) of the same molecule?
**A.** 1.6 µg/mL (≈ 2.61 µM)

**Q.** And the MIC (Kl. pneumoniae; Kl. pneumoniae, 2nd line)?
**A.** 0.2 µg/mL (≈ 0.326 µM)

**Q.** And the MIC (Kl. pneumoniae; Kl. pneumoniae, 3rd line)?
**A.** 0.2 µg/mL (≈ 0.326 µM)

**Q.** And the MIC (Kl. pneumoniae; Kl. pnuemoniae, 4th line)?
**A.** 0.2 µg/mL (≈ 0.326 µM)

**Q.** And the MIC (S. aureus; S. aureus (strain not given))?
**A.** 0.2 µg/mL (≈ 0.326 µM)

**Q.** And the MIC (S. aureus; S. aureus BX-1633)?
**A.** 0.8 µg/mL (≈ 1.3 µM)

**Q.** And the MIC (S. aureus; S. aureus Smith)?
**A.** 0.4 µg/mL (≈ 0.652 µM)

**Q.** What about the MIC (E. coli; ATCC8739, table 4 (BB-S 525), E. coli ATCC 8739) of the same molecule?
**A.** 6.3 µg/mL (≈ 10.3 µM)

**Q.** And the MIC (E. coli; table 4 (BB-S 525), E. coli BX-1373, read-out: MIC)?
**A.** 0.4 µg/mL (≈ 0.652 µM)

**Q.** What about the MIC (E. coli; table 4 (BB-S 525), E. coli Juhl, read-out: MIC) of the same molecule?
**A.** 0.4 µg/mL (≈ 0.652 µM)

**Q.** And the MIC (E. coli; table 4 (BB-S 525), E. coli NIHJ, read-out: MIC)?
**A.** 0.2 µg/mL (≈ 0.326 µM)

**Q.** And the MIC (E. coli; table 4 (BB-S 525), E. coli, strain not given, 1st line, read-out: MIC)?
**A.** 0.2 µg/mL (≈ 0.326 µM)

**Q.** What about the MIC (E. coli; table 4 (BB-S 525), E. coli, strain not given, 2nd line, read-out: MIC) of the same molecule?
**A.** 0.2 µg/mL (≈ 0.326 µM)

**Q.** What about the MIC (E. coli; table 4 (BB-S 525), E. coli, strain not given, 3rd line, read-out: MIC) of the same molecule?
**A.** 6.3 µg/mL (≈ 10.3 µM)

**Q.** What about the MIC (Shig. sonnei) of the same molecule?
**A.** 0.1 µg/mL (≈ 0.163 µM)

**Q.** And the MIC (Sal. typhosa)?
**A.** 0.2 µg/mL (≈ 0.326 µM)

**Q.** What about the MIC (Shig. flexneri) of the same molecule?
**A.** 12.5 µg/mL (≈ 20.4 µM)

**Q.** What about the MIC (Serr. marcescens) of the same molecule?
**A.** 25 µg/mL (≈ 40.7 µM)

**Q.** And the MIC (Sal. enteritidis)?
**A.** 0.2 µg/mL (≈ 0.326 µM)

**Q.** And the MIC (Pr. mirabilis; 1st line)?
**A.** 0.4 µg/mL (≈ 0.652 µM)

**Q.** And the MIC (Pr. mirabilis; 2nd line)?
**A.** 0.2 µg/mL (≈ 0.326 µM)

**Q.** What about the MIC (B. anthracis) of the same molecule?
**A.** 0.2 µg/mL (≈ 0.326 µM)

**Q.** What about the MIC (Ps. aeruginosa; Pseudomonas aeruginosa, 1st line, read-out: MIC) of the same molecule?
**A.** > 100 µg/mL

**Q.** And the MIC (Ps. aeruginosa; 2nd line)?
**A.** > 100 µg/mL

**Q.** And the MIC (Pr. rettgeri)?
**A.** 0.8 µg/mL (≈ 1.3 µM)

**Q.** What about the MIC (Pr. vulgaris; 1st line) of the same molecule?
**A.** 0.2 µg/mL (≈ 0.326 µM)

**Q.** And the MIC (Pr. vulgaris; 2nd line)?
**A.** 3.1 µg/mL (≈ 5.05 µM)

**Q.** And the MIC (Enterob. cloacae)?
**A.** 3.1 µg/mL (≈ 5.05 µM)

**Q.** What about the MIC (Pr. morganii; 1st line) of the same molecule?
**A.** > 100 µg/mL

**Q.** What about the MIC (Pr. morganii; 2nd line) of the same molecule?
**A.** 0.2 µg/mL (≈ 0.326 µM)

**Q.** What does the source list for `NCc1ccccc1CC(=O)N[C@@H]1C(=O)N2C(C(=O)O)=C(CSc3nnnn3CC(=O)O)CS[C@H]12` [BL-S786, reference compound]?
**A.** MIC (S. marcescens; 16 strains, Mueller-Hinton agar, inoculum 10^4 dilution, MIC cutoff 200 mcg./ml.): 180 µg/mL (≈ 346 µM); MIC (Klebsiella sp.): 0.8 µg/mL (≈ 1.54 µM); MIC (D. pneumoniae): 0.08 µg/mL (≈ 0.154 µM); MIC ([1]; 7 strains, Mueller-Hinton agar, inoculum 10^4 dilution, MIC cutoff 200 mcg./ml.): 9.3 µg/mL (≈ 17.9 µM); MIC (Proteus (indole +)): 0.7 µg/mL (≈ 1.35 µM); MIC ([2]; 5 strains, Mueller-Hinton agar, inoculum 10^4 dilution, MIC cutoff 200 mcg./ml.): 29 µg/mL (≈ 55.8 µM); MIC (S. pyogenes): 0.2 µg/mL (≈ 0.385 µM); MIC (S. aureus (sensitive); 4 strains, Mueller-Hinton agar, inoculum 10^4 dilution, MIC cutoff 200 mcg./ml.): 1.3 µg/mL (≈ 2.5 µM); MIC (Providencia sp.): 1.4 µg/mL (≈ 2.69 µM); MIC (Proteus (indole-)): 0.9 µg/mL (≈ 1.73 µM); MIC (Enterobacter (sensitive)): 1.3 µg/mL (≈ 2.5 µM); MIC (E. coli (sensitive)): 0.4 µg/mL (≈ 0.77 µM); MIC [3]: 7.7 µg/mL (≈ 14.8 µM); MIC [4]: 3 µg/mL (≈ 5.77 µM); MIC [5]: 48 µg/mL (≈ 92.4 µM); ED50 (E. coli Juhl): 0.43 mg/kg; PD50 (E. coli Juhl): 0.55 mgm./kg. and 0.46 mgm./kg. and 0.39 mgm./kg.
